Target: T1, GPR109B (Homo sapiens, UniProt P49019)
T1 construct: gene HCAR3
T1 sequence (P49019 whole entry): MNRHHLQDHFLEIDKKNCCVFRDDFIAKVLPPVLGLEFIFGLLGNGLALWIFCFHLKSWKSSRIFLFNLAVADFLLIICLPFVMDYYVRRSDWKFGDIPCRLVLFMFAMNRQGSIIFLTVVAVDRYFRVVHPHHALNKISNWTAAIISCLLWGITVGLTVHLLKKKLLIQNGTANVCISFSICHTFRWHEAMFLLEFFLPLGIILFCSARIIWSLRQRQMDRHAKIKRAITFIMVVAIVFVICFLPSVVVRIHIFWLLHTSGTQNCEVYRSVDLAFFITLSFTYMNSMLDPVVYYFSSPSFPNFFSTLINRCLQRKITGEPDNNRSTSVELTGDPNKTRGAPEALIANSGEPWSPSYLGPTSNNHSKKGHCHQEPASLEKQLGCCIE

## O=C(O)c1cccnc1 [nicotinic acid]
  EC50: 25 µM
